From PMC12396409, “Screening and hit evaluation of a microbial metabolite library against the pathogenic Plasmodium falciparum and Toxoplasma gondii parasites” (International Journal for Parasitology: Drugs and Drug …, 2025)
Where two headings read alike, the source gives them in different places.

Tests used:
[1] = test system: P. falciparum 3D7 parasites; assay: P. falciparum growth inhibition assay, 1-cycle (72 h treatment), SYBR DNA staining (library screen at 2 μg/mL and dose-response); type: cell-based, Plasmodium falciparum; details: for activity at 2 µg/mL: Plasmodium falciparum
[2] = test system: P. falciparum 3D7 parasites; assay: P. falciparum growth inhibition assay, 2-cycle (120 h treatment), delayed-death screen and dose-response; type: cell-based, Plasmodium falciparum; details: for activity at 2 µg/mL: Plasmodium falciparum
[3] = test system: T. gondii RH strain (RH-Tub-eYFP) tachyzoites; assay: microbe, parasite or virus in culture; type: cell-based, Toxoplasma gondii; details: 72 h, 72 h; for percent parasite growth at 2 µg/mL: Toxoplasma gondii
[4] = T. gondii, screen at 2 μg/mL, replicate 1, read-out: Tg_72h_%Growth_Rep1
[5] = T. gondii, screen at 2 μg/mL, replicate 2, read-out: Tg_72h_%Growth_Rep2
[6] = P. falciparum 3D7, 72 h, library screen at 2 μg/mL, % growth, replicate 1
[7] = P. falciparum 3D7, 72 h, library screen at 2 μg/mL, % growth, replicate 2
[8] = P. falciparum 3D7, 120 h, library screen at 2 μg/mL, % growth, replicate 1
[9] = P. falciparum 3D7, 120 h, library screen at 2 μg/mL, % growth, replicate 2
[10] = T. gondii RH, library screen at 2 μg/mL, % growth, replicate 1
[11] = T. gondii RH, library screen at 2 μg/mL, % growth, replicate 2
[12] = P. falciparum, 72 h, screen at 2 μg/mL, replicate 1
[13] = P. falciparum, 72 h, screen at 2 μg/mL, replicate 2
[14] = P. falciparum, 120 h, screen at 2 μg/mL, replicate 1
[15] = P. falciparum, 120 h, screen at 2 μg/mL, replicate 2
[16] = T. gondii, screen at 2 μg/mL, replicate 1
[17] = T. gondii, screen at 2 μg/mL, replicate 2
[18] = 3D7, 72 h, P. falciparum, 72 h, screen at 2 μg/mL, replicate 1, read-out: Pf_72h_%Growth_Rep1
[19] = 3D7, 72 h, P. falciparum, 72 h, screen at 2 μg/mL, replicate 2, read-out: Pf_72h_%Growth_Rep2
[20] = 3D7, 120 h, P. falciparum, 120 h, screen at 2 μg/mL, replicate 1, read-out: Pf_120h_%Growth_Rep1
[21] = 3D7, 120 h, P. falciparum, 120 h, screen at 2 μg/mL, replicate 2, read-out: Pf_120h_%Growth_Rep2

CC[C@H](C)C(=O)[C@@H](C)C1=CC(=O)C2=C(O[C@]3(C)CC[C@H]4O[C@@H](C(C)(C)O)CC[C@]4(C)[C@H]3C2)C1=O [Cochlioquinone B]
activity at 2 µg/mL ([1]; 3D7, P. falciparum, 72 h, screen at 2 μg/mL, replicate 1, read-out: Pf_72h_%Growth_Rep1): 61.4% | activity at 2 µg/mL ([1]; 3D7, P. falciparum, 72 h, screen at 2 μg/mL, replicate 2, read-out: Pf_72h_%Growth_Rep2): 52.9% | activity at 2 µg/mL ([2]; 3D7, P. falciparum, 120 h, screen at 2 μg/mL, replicate 1, read-out: Pf_120h_%Growth_Rep1): 47% | activity at 2 µg/mL ([2]; 3D7, P. falciparum, 120 h, screen at 2 μg/mL, replicate 2, read-out: Pf_120h_%Growth_Rep2): 44.2% | percent parasite growth at 2 µg/mL [3, 4]: 110% | percent parasite growth at 2 µg/mL [3, 5]: 83.8%

Oc1cccc2nc3ccccc3nc12 [BIA-H1520]
Pf_72h_%Growth_Rep1 [1, 6]: 84.93% | Pf_72h_%Growth_Rep2 [1, 7]: 98.32% | Pf_120h_%Growth_Rep1 [2, 8]: 70.83% | Pf_120h_%Growth_Rep2 [2, 9]: 82.39% | Tg_72h_%Growth_Rep1 [3, 10]: 90.90% | Tg_72h_%Growth_Rep2 [3, 11]: 78.11%

CCCC1CC(C(=O)NC(C(C)O)C2OC(SC)C(O)C(O)C2O)N(C)C1 (stereo not shown) [BIA-L1457]
Pf_72h_%Growth_Rep1 [1, 6]: 49.27% | Pf_72h_%Growth_Rep2 [1, 7]: 59.50% | Pf_120h_%Growth_Rep1 [2, 8]: 9.59% | Pf_120h_%Growth_Rep2 [2, 9]: 18.68% | Tg_72h_%Growth_Rep1 [3, 10]: 26.67% | Tg_72h_%Growth_Rep2 [3, 11]: 42.80%

COc1c(C)c(OC(=O)c2c(C)c(C)c(OC(=O)c3c(C)cc(O)c(C)c3O)c(C)c2OC)c(C)c(C)c1C(=O)O [Thielavin B]
activity in the screen against P. falciparum ([1]; 2 μg/mL, 72 h, active = ≥80 % growth inhibition): active | Pf_72h_%Growth_Rep1 [1, 12]: 13.97% | Pf_72h_%Growth_Rep2 [1, 13]: 7.85% | Pf_120h_%Growth_Rep1 [2, 14]: 38.21% | Pf_120h_%Growth_Rep2 [2, 15]: 6.65% | Tg_72h_%Growth_Rep1 [3, 16]: 86.62% | Tg_72h_%Growth_Rep2 [3, 17]: 101.22%

CC1(C)CCCC2(C)c3cnncc3CCC12 (stereo not shown) [Polygodial pyridazine]
Pf_72h_%Growth_Rep1 ([1]; P. falciparum, 72 h, parasite screen 2 μg/mL, % growth, replicate 1): 71.42% | Pf_72h_%Growth_Rep2 ([1]; P. falciparum, 72 h, parasite screen 2 μg/mL, % growth, replicate 2): 85.26% | Pf_120h_%Growth_Rep1 ([2]; P. falciparum, 120 h, parasite screen 2 μg/mL, % growth, replicate 1): 58.21% | Pf_120h_%Growth_Rep2 ([2]; P. falciparum, 120 h, parasite screen 2 μg/mL, % growth, replicate 2): 140.85% | Tg_72h_%Growth_Rep1 ([3]; T. gondii, parasite screen 2 μg/mL, % growth, replicate 1): 119.26% | Tg_72h_%Growth_Rep2 ([3]; T. gondii, parasite screen 2 μg/mL, % growth, replicate 2): 96.17%

CC1=C2C(=CO[C@H](C)[C@H]2C)C(O)=C(C(=O)O)C1=O [Citrinin]
activity at 2 µg/mL [1, 18]: 89.1% | activity at 2 µg/mL [1, 19]: 84% | activity at 2 µg/mL [2, 20]: 138% | activity at 2 µg/mL [2, 21]: 82.5% | percent parasite growth at 2 µg/mL [3, 4]: 87.8% | percent parasite growth at 2 µg/mL [3, 5]: 82%

CN1C(=O)c2ccccc2NC(=O)[C@@H]1Cc1ccccc1 [Cyclopeptine]
Pf_72h_%Growth_Rep1 [1, 12]: 53.40% | Pf_72h_%Growth_Rep2 [1, 13]: 63.93% | Pf_120h_%Growth_Rep1 [2, 14]: 15.88% | Pf_120h_%Growth_Rep2 [2, 15]: 61.17% | Tg_72h_%Growth_Rep1 [3, 16]: 139.33% | Tg_72h_%Growth_Rep2 [3, 17]: 93.22%

C/C1=C\[C@H](C)C[C@H](C)[C@H](Cc2cnco2)OC(=O)/C(C)=C/CC[C@H](C)[C@H](Cc2cnco2)OC1=O [Conglobatin B]
Pf_72h_%Growth_Rep1 [1, 12]: 81.21% | Pf_72h_%Growth_Rep2 [1, 13]: 81.29% | Pf_120h_%Growth_Rep1 [2, 14]: 80.47% | Pf_120h_%Growth_Rep2 [2, 15]: 86.62% | Tg_72h_%Growth_Rep1 [3, 16]: 184.82% | Tg_72h_%Growth_Rep2 [3, 17]: 99.16%

CN(C)[C@@H]1C(O)=C(C(N)=O)C(=O)[C@@]2(O)C(O)=C3C(=O)c4c(O)ccc(Cl)c4[C@@](C)(O)[C@H]3C[C@@H]12 [Chlortetracycline]
activity at 2 µg/mL [1, 18]: 97.7% | activity at 2 µg/mL [1, 19]: 90.6% | activity at 2 µg/mL [2, 20]: 149% | activity at 2 µg/mL [2, 21]: 97.7% | percent parasite growth at 2 µg/mL [3, 4]: 102% | percent parasite growth at 2 µg/mL [3, 5]: 83.5%
